Source: the supplement of paper PMC13207355

Columns and labels:
Conditions in all cases: exposure time: 72 h
E28 [1] = patient-derived glioblastoma stem cells of classical subtype; assay: phenotypic distance (Euclidean, principal components) from DMSO controls (arbitrary units); higher = stronger morphological change
E31 [2] = patient-derived glioblastoma stem cells of proneural subtype; assay: as above
E21 [3] = patient-derived glioblastoma stem cells of mesenchymal subtype; assay: as above
E57 [4] = patient-derived glioblastoma stem cells of mesenchymal subtype; assay: as above
E34 [5] = patient-derived glioblastoma stem cells of proneural subtype; assay: as above
FT3469 [6] = normal neural stem cell line; assay: as above
E13 [7] = patient-derived glioblastoma stem cells of classical subtype; assay: as above
E28 [8] = assay: surviving fraction (nuclei count normalised to DMSO); higher = more cells surviving (less toxic)
E31 [9] = assay: as above
E21 [10] = assay: as above
E57 [11] = assay: as above
E34 [12] = assay: as above
FT3469 [13] = assay: as above
E13 [14] = assay: as above
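For phenotypic distance (Euclidean, principal components) from DMSO controls in this document: cell Painting imaging in 384-well plates, CellProfiler features reduced to at least 20 principal components, Euclidean distance versus same-plate DMSO vehicle wells (0.1% v/v), median over six images per well.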
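For surviving fraction (nuclei count normalised to DMSO) in this document: nuclei counted by high-content imaging of Hoechst-stained cells in laminin-coated 384-well plates, relative to 0.1% DMSO vehicle wells, with staurosporine as cell-death control.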

C[C@@H](Oc1cc(-c2cnn(C3CCNCC3)c2)cnc1N)c1c(Cl)ccc(F)c1Cl [Crizotinib]
Conditions	phenotypic distance	surviving fraction
E13 [7], 4.1 nM	0.499	–
E13 [7], 12.3 nM	0.452	–
E13 [7], 37 nM	0.936	–
E13 [7], 111.1 nM	0.626	–
E13 [7], 333.3 nM	0.58	–
E13 [7], 1000 nM	1.09	–
E13 [7], 3000 nM	3.75	–
E13 [14], 4.1 nM	–	0.978
E13 [14], 12.3 nM	–	0.948
E13 [14], 37 nM	–	0.972
E13 [14], 111.1 nM	–	0.863
E13 [14], 333.3 nM	–	0.881
E13 [14], 1000 nM	–	0.849
E13 [14], 3000 nM	–	0.482
E21 [3], 4.1 nM	0.599	–
E21 [3], 12.3 nM	1.58	–
E21 [3], 37 nM	0.706	–
E21 [3], 111.1 nM	0.783	–
E21 [3], 333.3 nM	0.751	–
E21 [3], 1000 nM	1.37	–
E21 [3], 3000 nM	3.3	–
E21 [10], 4.1 nM	–	0.907
E21 [10], 12.3 nM	–	0.826
E21 [10], 37 nM	–	1.02
E21 [10], 111.1 nM	–	0.883
E21 [10], 333.3 nM	–	0.986
E21 [10], 1000 nM	–	0.78
E21 [10], 3000 nM	–	0.472
E28 [1], 4.1 nM	0.935	–
E28 [1], 12.3 nM	0.741	–
E28 [1], 37 nM	1.91	–
E28 [1], 111.1 nM	0.725	–
E28 [1], 333.3 nM	0.457	–
E28 [1], 1000 nM	0.886	–
E28 [1], 3000 nM	2.74	–
E28 [8], 4.1 nM	–	1.02
E28 [8], 12.3 nM	–	0.941
E28 [8], 37 nM	–	0.83
E28 [8], 111.1 nM	–	0.923
E28 [8], 333.3 nM	–	0.96
E28 [8], 1000 nM	–	0.837
E28 [8], 3000 nM	–	0.326
E31 [2], 4.1 nM	0.339	–
E31 [2], 12.3 nM	0.524	–
E31 [2], 37 nM	0.734	–
E31 [2], 111.1 nM	0.728	–
E31 [2], 333.3 nM	0.762	–
E31 [2], 1000 nM	1.01	–
E31 [2], 3000 nM	3.13	–
E31 [9], 4.1 nM	–	0.998
E31 [9], 12.3 nM	–	1.05
E31 [9], 37 nM	–	0.891
E31 [9], 111.1 nM	–	0.884
E31 [9], 333.3 nM	–	1.13
E31 [9], 1000 nM	–	0.96
E31 [9], 3000 nM	–	0.472
E34 [5], 4.1 nM	0.825	–
E34 [5], 12.3 nM	0.797	–
E34 [5], 37 nM	0.989	–
E34 [5], 111.1 nM	0.934	–
E34 [5], 333.3 nM	0.571	–
E34 [5], 1000 nM	1.16	–
E34 [5], 3000 nM	2.7	–
E34 [12], 4.1 nM	–	0.973
E34 [12], 12.3 nM	–	0.985
E34 [12], 37 nM	–	0.786
E34 [12], 111.1 nM	–	1.1
E34 [12], 333.3 nM	–	0.933
E34 [12], 1000 nM	–	0.88
E34 [12], 3000 nM	–	0.565
E57 [4], 4.1 nM	0.221	–
E57 [4], 12.3 nM	1.2	–
E57 [4], 37 nM	0.43	–
E57 [4], 111.1 nM	0.517	–
E57 [4], 333.3 nM	0.355	–
E57 [4], 1000 nM	0.883	–
E57 [4], 3000 nM	4.09	–
E57 [11], 4.1 nM	–	1.03
E57 [11], 12.3 nM	–	0.937
E57 [11], 37 nM	–	1.01
E57 [11], 111.1 nM	–	0.957
E57 [11], 333.3 nM	–	1.04
E57 [11], 1000 nM	–	0.857
E57 [11], 3000 nM	–	0.477
FT3469 [6], 4.1 nM	0.558	–
FT3469 [6], 12.3 nM	0.592	–
FT3469 [6], 37 nM	0.496	–
FT3469 [6], 111.1 nM	0.573	–
FT3469 [6], 333.3 nM	0.58	–
FT3469 [6], 1000 nM	0.774	–
FT3469 [6], 3000 nM	2.09	–
FT3469 [13], 4.1 nM	–	0.854
FT3469 [13], 12.3 nM	–	1.03
FT3469 [13], 37 nM	–	1.09
FT3469 [13], 111.1 nM	–	1.09
FT3469 [13], 333.3 nM	–	0.941
FT3469 [13], 1000 nM	–	0.891
FT3469 [13], 3000 nM	–	0.574
